The source made the active and inactive calls.
Key:
[1] = target: T1, Apoptotic protease-activating factor 1 (Homo sapiens, UniProt O14727); format: functional
T1 sequence (O14727 whole entry): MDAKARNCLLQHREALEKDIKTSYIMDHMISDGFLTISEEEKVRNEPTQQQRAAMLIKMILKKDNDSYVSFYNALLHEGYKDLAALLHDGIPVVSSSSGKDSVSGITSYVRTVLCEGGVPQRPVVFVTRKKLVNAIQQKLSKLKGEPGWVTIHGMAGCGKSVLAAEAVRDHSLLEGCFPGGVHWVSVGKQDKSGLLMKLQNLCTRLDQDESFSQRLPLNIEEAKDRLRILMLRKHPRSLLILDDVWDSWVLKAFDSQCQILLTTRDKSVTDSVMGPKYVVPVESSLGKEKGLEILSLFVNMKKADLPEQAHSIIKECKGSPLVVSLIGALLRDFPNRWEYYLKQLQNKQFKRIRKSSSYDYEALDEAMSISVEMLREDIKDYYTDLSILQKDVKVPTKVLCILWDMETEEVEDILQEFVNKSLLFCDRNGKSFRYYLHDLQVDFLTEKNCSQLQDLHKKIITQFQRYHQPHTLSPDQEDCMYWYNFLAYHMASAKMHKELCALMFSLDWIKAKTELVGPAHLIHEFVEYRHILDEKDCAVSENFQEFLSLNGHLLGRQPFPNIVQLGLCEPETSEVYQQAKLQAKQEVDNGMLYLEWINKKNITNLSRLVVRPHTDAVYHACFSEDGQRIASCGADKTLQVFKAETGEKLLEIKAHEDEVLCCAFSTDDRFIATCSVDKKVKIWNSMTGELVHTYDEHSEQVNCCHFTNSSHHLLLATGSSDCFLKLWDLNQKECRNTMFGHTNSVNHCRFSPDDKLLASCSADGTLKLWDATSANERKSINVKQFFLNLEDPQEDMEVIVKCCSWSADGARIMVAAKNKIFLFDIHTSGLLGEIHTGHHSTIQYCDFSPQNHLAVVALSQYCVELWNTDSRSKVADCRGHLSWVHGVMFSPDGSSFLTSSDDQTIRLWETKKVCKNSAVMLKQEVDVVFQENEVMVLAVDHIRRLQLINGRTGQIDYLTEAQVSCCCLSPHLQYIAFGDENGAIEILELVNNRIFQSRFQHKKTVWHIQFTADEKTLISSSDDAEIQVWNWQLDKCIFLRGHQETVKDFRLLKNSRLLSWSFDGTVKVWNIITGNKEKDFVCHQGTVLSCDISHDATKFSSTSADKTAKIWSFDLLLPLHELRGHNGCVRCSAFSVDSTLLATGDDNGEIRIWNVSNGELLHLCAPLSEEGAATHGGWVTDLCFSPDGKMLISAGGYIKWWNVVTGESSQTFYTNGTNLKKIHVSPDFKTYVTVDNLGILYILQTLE

[2] = target: Genome polyprotein (dengue virus type 2, UniProt P29990); experiment: Dengue-2 NS5 methyltransferase inhibitors, primary screen, biochemical, confirmation dose response (AID 588689); format: functional
[3] = target: T2, Rac GTPase-activating protein 1 (Homo sapiens, UniProt Q9H0H5); experiment: MgcRacGAP GTPase-activating activity inhibitors, confirmation, biochemical, ADP Hunter fluorescence, primary and confirmatory (AID 624330); format: functional
T2 sequence (Q9H0H5 whole entry): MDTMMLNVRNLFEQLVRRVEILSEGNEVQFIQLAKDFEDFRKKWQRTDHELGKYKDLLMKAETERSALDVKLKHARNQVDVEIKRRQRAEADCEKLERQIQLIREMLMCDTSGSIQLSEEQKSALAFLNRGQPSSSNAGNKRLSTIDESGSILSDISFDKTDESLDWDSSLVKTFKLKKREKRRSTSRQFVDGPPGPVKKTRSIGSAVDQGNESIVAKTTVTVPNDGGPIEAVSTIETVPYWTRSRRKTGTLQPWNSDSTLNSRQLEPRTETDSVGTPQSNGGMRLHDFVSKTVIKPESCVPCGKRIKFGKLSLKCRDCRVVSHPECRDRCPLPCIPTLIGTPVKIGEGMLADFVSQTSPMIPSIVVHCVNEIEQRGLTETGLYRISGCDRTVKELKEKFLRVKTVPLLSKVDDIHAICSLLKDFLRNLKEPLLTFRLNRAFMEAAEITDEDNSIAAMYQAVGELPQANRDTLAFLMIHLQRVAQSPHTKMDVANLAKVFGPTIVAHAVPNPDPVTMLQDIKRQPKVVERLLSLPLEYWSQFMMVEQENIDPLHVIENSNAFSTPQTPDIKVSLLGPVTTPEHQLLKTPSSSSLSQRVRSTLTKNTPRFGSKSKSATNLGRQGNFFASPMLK

[4] = target: T3, Caspase-6 (Homo sapiens, UniProt P55212); experiment: human caspase-6 inhibitors, dose response, biochemical, VEID-R110 fluorescence, cherry-pick (AID 720632)
T3 sequence (P55212 whole entry): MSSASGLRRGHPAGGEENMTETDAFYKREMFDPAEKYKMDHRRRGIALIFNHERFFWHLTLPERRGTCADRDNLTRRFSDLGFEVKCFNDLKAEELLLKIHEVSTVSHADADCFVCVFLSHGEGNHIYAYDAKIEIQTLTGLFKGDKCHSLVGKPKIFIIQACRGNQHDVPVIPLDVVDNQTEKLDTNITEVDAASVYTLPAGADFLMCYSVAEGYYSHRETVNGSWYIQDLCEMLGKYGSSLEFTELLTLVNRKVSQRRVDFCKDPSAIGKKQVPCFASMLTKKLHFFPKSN

[5] = target: T4, Endoribonuclease toxin MazF (Escherichia coli K-12, UniProt P0AE70); experiment: MazF toxin RNase activators, dose response, biochemical, fluorescence, single-stranded RNA substrate, uHTS hits (AID 588481); format: functional
T4 sequence (P0AE70 whole entry): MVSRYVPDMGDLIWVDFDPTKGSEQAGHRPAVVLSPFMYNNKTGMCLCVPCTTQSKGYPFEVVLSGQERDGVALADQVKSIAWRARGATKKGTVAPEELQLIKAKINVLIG

[6] = target: T4, Endoribonuclease toxin MazF; experiment: fluorescent RNA oligo signal without MazF, dose response, counter-screen for MazEF activator project, biochemical, fluorescence, single-stranded RNase substrate (AID 588502); format: functional
[7] = target: T5, fMet-Leu-Phe receptor (Homo sapiens, UniProt P21462); experiment: FPR ligands, dose response (AID 519); format: functional
T5 sequence (P21462 whole entry): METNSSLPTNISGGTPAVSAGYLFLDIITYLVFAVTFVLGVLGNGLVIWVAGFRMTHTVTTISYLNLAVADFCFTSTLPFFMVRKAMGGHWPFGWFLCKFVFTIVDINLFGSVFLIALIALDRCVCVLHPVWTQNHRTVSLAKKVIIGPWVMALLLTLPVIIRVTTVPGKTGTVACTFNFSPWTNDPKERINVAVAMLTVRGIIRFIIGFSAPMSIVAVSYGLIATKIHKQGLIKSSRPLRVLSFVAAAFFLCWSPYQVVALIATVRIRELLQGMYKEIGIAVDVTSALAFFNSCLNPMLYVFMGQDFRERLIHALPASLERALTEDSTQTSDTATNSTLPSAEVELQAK

[8] = cells; format: functional, cell-based
[9] = cells; format: functional, cell-based; remark: listed apart in the source
[10] = cells; format: functional, cell-based; remark: listed apart in the source
[11] = target: T6, Heat shock factor protein 1 (Mus musculus, UniProt P38532); experiment: inhibition of MG132-induced HSE-luciferase signal, confirmation, cell-based, NIH3T3, luminescence, dose retest (AID 2382); format: functional;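 further: NIH3T3 fibroblasts with HSF1-driven luciferase reporter stressed by proteasome inhibitor MG132; luminescence from HSF1-driven luciferase expression after 8 hours of MG132 stress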
T6 sequence (P38532 whole entry): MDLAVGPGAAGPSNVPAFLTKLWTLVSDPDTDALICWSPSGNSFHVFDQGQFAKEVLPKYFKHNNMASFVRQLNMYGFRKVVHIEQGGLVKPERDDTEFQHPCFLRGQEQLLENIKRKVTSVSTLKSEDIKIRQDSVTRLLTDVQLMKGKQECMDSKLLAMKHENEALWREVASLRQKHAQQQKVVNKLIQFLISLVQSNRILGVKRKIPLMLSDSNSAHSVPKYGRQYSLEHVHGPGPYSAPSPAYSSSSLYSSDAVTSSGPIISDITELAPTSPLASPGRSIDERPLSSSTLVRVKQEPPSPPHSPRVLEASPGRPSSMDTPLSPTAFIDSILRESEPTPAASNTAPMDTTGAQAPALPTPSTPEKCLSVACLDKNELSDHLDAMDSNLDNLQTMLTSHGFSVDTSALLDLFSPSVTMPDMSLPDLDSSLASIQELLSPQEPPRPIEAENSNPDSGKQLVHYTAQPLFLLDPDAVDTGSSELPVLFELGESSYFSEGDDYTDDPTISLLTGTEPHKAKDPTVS

[12] = cells; format: functional, cell-based; remark: listed apart in the source
[13] = system: HEK293; experiment: inhibitors of LMP1-driven NF-kB reporter, dose response, cell-based, HEK293, luciferase, cherry-pick (AID 588343); format: functional; settings: Homo sapiens
[14] = miR-122 activators in hepatoma reporter cells, dose response, cell-based, Huh7 psiCHECK-miR122, Renilla luciferase, cherry-picked (AID 651956); format: functional;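 further: huh7 hepatoma cells stably carrying a psiCHECK-2 miR-122 sensor plasmid; renilla luciferase signal reporting endogenous miR-122 activity after 48 h compound exposure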
[15] = target: Nonstructural protein 1 (Influenza A virus, UniProt Q194T2); format: functional, Influenza A virus (A/California/07/2009(H1N1))
[16] = target: T7, COUP transcription factor 2 (Homo sapiens, UniProt P24468); experiment: Luminescence-based cell-based high throughput dose response assay to identify inhibitors of COUP-TFII (NR2F2).; format: functional;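 further: HEK293 cells transiently cotransfected with COUP-TFII expression vector and reporter; luciferase reporter luminescence driven by COUP-TFII from the pX2-168 reporter plasmid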
T7 sequence (P24468 whole entry): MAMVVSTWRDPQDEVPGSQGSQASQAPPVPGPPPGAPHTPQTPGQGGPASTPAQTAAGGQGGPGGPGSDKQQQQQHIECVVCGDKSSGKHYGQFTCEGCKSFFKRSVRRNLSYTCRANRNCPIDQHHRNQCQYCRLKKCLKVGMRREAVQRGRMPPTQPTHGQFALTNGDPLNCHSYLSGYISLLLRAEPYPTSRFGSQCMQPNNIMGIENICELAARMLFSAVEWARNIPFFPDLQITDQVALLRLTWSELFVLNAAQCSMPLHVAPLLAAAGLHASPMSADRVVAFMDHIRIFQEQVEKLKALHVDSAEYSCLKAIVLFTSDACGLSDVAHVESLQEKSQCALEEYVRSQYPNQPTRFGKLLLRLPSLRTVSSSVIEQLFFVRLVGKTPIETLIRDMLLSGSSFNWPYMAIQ

Sequence of Nonstructural protein 1 (Q194T2 whole entry): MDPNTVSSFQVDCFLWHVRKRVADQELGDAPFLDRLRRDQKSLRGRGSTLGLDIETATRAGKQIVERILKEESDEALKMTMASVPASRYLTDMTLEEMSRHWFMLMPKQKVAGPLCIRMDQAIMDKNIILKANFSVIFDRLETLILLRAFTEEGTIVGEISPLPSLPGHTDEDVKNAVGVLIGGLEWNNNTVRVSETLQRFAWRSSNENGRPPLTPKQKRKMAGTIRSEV
Sequence of Genome polyprotein (P29990 2492-3391 limits assumed): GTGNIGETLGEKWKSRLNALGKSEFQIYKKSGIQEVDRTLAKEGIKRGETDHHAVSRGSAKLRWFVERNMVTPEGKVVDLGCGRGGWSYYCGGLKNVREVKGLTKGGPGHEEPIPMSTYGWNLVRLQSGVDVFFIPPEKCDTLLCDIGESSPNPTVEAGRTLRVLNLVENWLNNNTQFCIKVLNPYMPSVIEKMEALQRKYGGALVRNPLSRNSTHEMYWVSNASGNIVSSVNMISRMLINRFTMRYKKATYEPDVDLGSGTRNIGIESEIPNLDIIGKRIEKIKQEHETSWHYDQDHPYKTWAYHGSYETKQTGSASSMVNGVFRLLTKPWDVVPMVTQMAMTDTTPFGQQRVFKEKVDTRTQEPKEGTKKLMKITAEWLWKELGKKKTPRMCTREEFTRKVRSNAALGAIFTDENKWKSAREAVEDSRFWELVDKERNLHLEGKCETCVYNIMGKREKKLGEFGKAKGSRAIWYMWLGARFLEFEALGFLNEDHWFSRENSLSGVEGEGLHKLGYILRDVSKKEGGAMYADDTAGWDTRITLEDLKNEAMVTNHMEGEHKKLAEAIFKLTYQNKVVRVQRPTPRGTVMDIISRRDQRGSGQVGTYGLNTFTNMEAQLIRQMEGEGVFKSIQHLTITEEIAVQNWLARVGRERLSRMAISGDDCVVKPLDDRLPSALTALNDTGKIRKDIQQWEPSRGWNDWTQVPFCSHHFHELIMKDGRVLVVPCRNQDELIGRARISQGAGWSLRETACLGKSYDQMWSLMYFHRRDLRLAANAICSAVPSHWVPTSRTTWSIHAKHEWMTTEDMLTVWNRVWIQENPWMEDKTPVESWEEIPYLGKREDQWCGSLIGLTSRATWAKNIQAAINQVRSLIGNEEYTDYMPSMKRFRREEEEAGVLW

COC(=O)CCC(=O)OC1(C)C(=O)C2=CN(C3CCCC3)C(c3ccc(OC)cc3)=CC2=C(Br)C1=O (centres undefined)
IC50 [1]: 17.4 µM (active) | IC50 [2]: 33.8 µM (active)

COc1cc(/C=N/Nc2ccc(C(=O)O)cc2)ccc1O
IC50 [3]: 39.9 µM (active) | AC50 [4]: 11.1 µM (active)

COc1ccc2nc(SCC(=O)N3CC(=O)Nc4ccccc43)c(C#N)cc2c1
EC50 [5]: > 99 µM (inactive) | EC50 [6]: > 99 µM (inactive)

O=C(O)CC1Oc2ccc(Cl)cc2NC1=O (centres undefined)
Ki [7]: > 66.7 µM (inactive)

O=C(Cn1cnc2c(oc3ccccc32)c1=O)NCCc1ccccc1
IC50 [8]: > 29.9 µM (inactive) | EC50 [9]: > 29.9 µM (inactive)

C=CCOc1ccc(C2C(C(=O)c3ccco3)=C(O)C(=O)N2Cc2cccnc2)cc1 (centres undefined)
Ki [7]: 9.7 µM (active)

C[C@@H](C(=O)Nc1ccc2c(c1)OCCO2)n1c(=O)[nH]c2ccccc2c1=O
EC50 [10]: > 350 µM (not active) | EC50 [11]: 0.377 µM (active) | EC50 [12]: > 350 µM (not active) | AC50 [13]: 6.08 µM (active)

CCN(C[C@@H]1[C@@H](c2ccc(C3=CCCCC3)cc2)[C@@H](CO)N1CC1CC1)C(C)=O
AC50 [14]: 31.2 µM (active)

O=C(O)CCNc1cc(N2CCN(C(=O)c3ccco3)CC2)c2noc3c2c1C(=O)c1ccccc1-3
IC50 [15]: 26.9 µM (active) | IC50 [1]: 21.4 µM (active)

O=S(=O)(c1c[nH]cn1)N1CCc2ccccc21
Ki [7]: > 66.7 µM (inactive)

Cc1cc(NC2CCCC2)n2ncc(-c3ccccc3)c2n1
IC50 [16]: 49.3 µM (inactive)

From ChEMBL document CHEMBL1201862, “PubChem BioAssay data set” (2004)
